# According to the supplement of paper PMC10627819:
# Key:
# [1] = test system: B. subtilis 168; experiment: fitness (endpoint OD595 vs no drug) (fraction); higher = more growth
# Outline: (§1)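 Fitness compares growth at the stationary-phase transition with the robust mean of no-drug control wells, as a ratio of optical densities. The ratio is capped at 1. Wells of 384-well plates held 30 µl, or 55 µl for S. pneumoniae, inoculated at OD595 0.01. Readings at OD595 every 30 min for 14 h at 37 °C were corrected against the first reading.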
# [2] = test system: S. aureus DSM 20231; experiment: as above
# Outline: as §1
# [3] = test system: S. aureus Newman; experiment: as above
# Outline: as §1
# [4] = test system: S. pneumoniae D39V; experiment: as above
# Outline: as §1
# [5] = test system: B. subtilis 168; experiment: Bliss interaction score (quartile over a dose matrix) (fitness difference); higher = more antagonism (negative = synergy)
# Outline: (§2)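 The Bliss score is observed minus expected fitness under the product model, reported as quartiles over technical, biological and donor/recipient replicates. Fitness is the OD595 at entry into stationary phase divided by the plate's robust no-drug mean and capped at 1. Single-drug fitness was inferred from combination data.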
# [6] = test system: S. aureus DSM 20231; experiment: as above
# Outline: as §2
# [7] = test system: S. aureus Newman; experiment: as above
# Outline: as §2
# [8] = test system: S. pneumoniae D39V; experiment: as above
# Outline: as §2
# [9] = first compound 0.0625 µg/mL, partner 2.5 µg/mL
# [10] = first compound 0.0625 µg/mL, partner 5 µg/mL
# [11] = first compound 0.125 µg/mL, partner 1.25 µg/mL
# [12] = first compound 0.125 µg/mL, partner 2.5 µg/mL
# [13] = first compound 0.125 µg/mL, partner 5 µg/mL
# [14] = first compound 0.0625 µg/mL, partner 0.15 µg/mL
# [15] = first compound 0.0625 µg/mL, partner 0.3 µg/mL
# [16] = first compound 0.0625 µg/mL, partner 0.6 µg/mL
# [17] = first compound 0.125 µg/mL, partner 0.15 µg/mL
# [18] = first compound 0.125 µg/mL, partner 0.3 µg/mL
# [19] = first compound 0.125 µg/mL, partner 0.6 µg/mL
# 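Throughout, for Bliss interaction score (quartile over a dose matrix): first quartile when negative (synergy) and third quartile when positive (antagonism).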
structure (smiles),measurement,setting,value
CCC[C@@H]1C[C@@H](C(=O)N[C@@H]([C@H]2O[C@H](SC)[C@H](O)[C@@H](O)[C@H]2O)[C@H](C)Cl)N(C)C1 [Clindamycin] + CN1C2=CC=CC=C2N=C3C1=CC=CC3=O [Pyocyanin],fitness,"[1]; first compound 0.0039 µg/mL, partner 1.25 µg/mL, one replicate",0.892
same,fitness,"[1]; first compound 0.0039 µg/mL, partner 2.5 µg/mL, one replicate",0.922
same,fitness,"[1]; first compound 0.0039 µg/mL, partner 5 µg/mL, one replicate",0.821
same,fitness,"[1]; first compound 0.0078 µg/mL, partner 1.25 µg/mL, one replicate",0.424
same,fitness,"[1]; first compound 0.0078 µg/mL, partner 2.5 µg/mL, one replicate",0.451
same,fitness,"[1]; first compound 0.0078 µg/mL, partner 5 µg/mL, one replicate",0.495
same,fitness,"[1]; first compound 0.0156 µg/mL, partner 1.25 µg/mL, one replicate",0.863
same,fitness,"[1]; first compound 0.0156 µg/mL, partner 2.5 µg/mL, one replicate",0.802
same,fitness,"[1]; first compound 0.0156 µg/mL, partner 5 µg/mL, one replicate",0.725
same,fitness,"[1]; first compound 0.0625 µg/mL, partner 1.25 µg/mL",0.562
same,fitness,[1]; [9],0.576
same,fitness,[1]; [10],0.517
same,fitness,[1]; [11],0.388
same,fitness,[1]; [12],0.389
same,fitness,[1]; [13],0.358
same,fitness,"[1]; first compound 0.25 µg/mL, partner 1.25 µg/mL",0.34
same,fitness,"[1]; first compound 0.25 µg/mL, partner 2.5 µg/mL",0.319
same,fitness,"[1]; first compound 0.25 µg/mL, partner 5 µg/mL",0.314
same,fitness,[2]; [10],0.0689
same,fitness,[2]; [11],0.0414
same,fitness,[2]; [12],0.0387
same,fitness,[2]; [13],0.0705
same,fitness,"[3]; first compound 0.0312 µg/mL, partner 1.25 µg/mL",0.602
same,fitness,"[3]; first compound 0.0312 µg/mL, partner 2.5 µg/mL",0.424
same,fitness,"[3]; first compound 0.0312 µg/mL, partner 5 µg/mL",0.155
same,fitness,[3]; [9],0.179
same,fitness,[3]; [10],0.0835
same,fitness,[3]; [11],0.0658
same,fitness,[3]; [12],0.0591
same,fitness,[3]; [13],0.0732
same,fitness,"[4]; first compound 0.0125 µg/mL, partner 0.325 µg/mL",0.775
same,fitness,"[4]; first compound 0.0125 µg/mL, partner 0.65 µg/mL",0.742
same,fitness,"[4]; first compound 0.0125 µg/mL, partner 1.3 µg/mL",0.564
same,fitness,"[4]; first compound 0.015 µg/mL, partner 0.325 µg/mL, one replicate",0.89
same,fitness,"[4]; first compound 0.015 µg/mL, partner 0.65 µg/mL, one replicate",0.963
same,fitness,"[4]; first compound 0.025 µg/mL, partner 0.325 µg/mL",0.49
same,fitness,"[4]; first compound 0.025 µg/mL, partner 0.65 µg/mL",0.458
same,fitness,"[4]; first compound 0.025 µg/mL, partner 1.3 µg/mL",0.333
same,fitness,"[4]; first compound 0.03 µg/mL, partner 0.325 µg/mL, one replicate",0.873
same,fitness,"[4]; first compound 0.03 µg/mL, partner 0.65 µg/mL, one replicate",0.881
same,fitness,"[4]; first compound 0.05 µg/mL, partner 0.325 µg/mL",0.192
same,fitness,"[4]; first compound 0.05 µg/mL, partner 0.65 µg/mL",0.147
same,fitness,"[4]; first compound 0.05 µg/mL, partner 1.3 µg/mL",0.0814
same,fitness,"[4]; first compound 0.06 µg/mL, partner 0.325 µg/mL, one replicate",0.554
same,fitness,"[4]; first compound 0.06 µg/mL, partner 0.65 µg/mL, one replicate",0.689
same,Bliss interaction score,[5],0.0629
same,Bliss interaction score,[6],0.025
same,Bliss interaction score,[7],-0.141
same,Bliss interaction score,[8],-0.0665
CCC[C@@H]1C[C@@H](C(=O)N[C@@H]([C@H]2O[C@H](SC)[C@H](O)[C@@H](O)[C@H]2O)[C@H](C)Cl)N(C)C1 [Clindamycin] + CN(N=O)C(=O)N[C@@H](C=O)[C@@H](O)[C@H](O)[C@H](O)CO [Streptozotocin],fitness,"[1]; first compound 0.0039 µg/mL, partner 0.15 µg/mL, one replicate",1
same,fitness,"[1]; first compound 0.0039 µg/mL, partner 0.3 µg/mL, one replicate",≥ 1
same,fitness,"[1]; first compound 0.0039 µg/mL, partner 0.6 µg/mL, one replicate",≥ 1
same,fitness,"[1]; first compound 0.0078 µg/mL, partner 0.15 µg/mL, one replicate",0.954
same,fitness,"[1]; first compound 0.0078 µg/mL, partner 0.3 µg/mL, one replicate",0.857
same,fitness,"[1]; first compound 0.0078 µg/mL, partner 0.6 µg/mL, one replicate",0.915
same,fitness,"[1]; first compound 0.0156 µg/mL, partner 0.15 µg/mL, one replicate",0.951
same,fitness,"[1]; first compound 0.0156 µg/mL, partner 0.3 µg/mL, one replicate",0.894
same,fitness,"[1]; first compound 0.0156 µg/mL, partner 0.6 µg/mL, one replicate",0.89
same,fitness,"[1]; first compound 0.0625 µg/mL, partner 0.15 µg/mL, one replicate",0.545
same,fitness,"[1]; first compound 0.0625 µg/mL, partner 0.3 µg/mL, one replicate",0.504
same,fitness,"[1]; first compound 0.0625 µg/mL, partner 0.6 µg/mL, one replicate",0.521
same,fitness,"[1]; first compound 0.125 µg/mL, partner 0.15 µg/mL, one replicate",0.41
same,fitness,"[1]; first compound 0.125 µg/mL, partner 0.3 µg/mL, one replicate",0.383
same,fitness,"[1]; first compound 0.125 µg/mL, partner 0.6 µg/mL, one replicate",0.374
same,fitness,"[1]; first compound 0.25 µg/mL, partner 0.15 µg/mL, one replicate",0.378
same,fitness,"[1]; first compound 0.25 µg/mL, partner 0.3 µg/mL, one replicate",0.366
same,fitness,"[1]; first compound 0.25 µg/mL, partner 0.6 µg/mL, one replicate",0.365
same,fitness,[2]; [14],0.0812
same,fitness,[2]; [15],0.0698
same,fitness,[2]; [16],0.0805
same,fitness,[2]; [17],0.0369
same,fitness,[2]; [18],0.0299
same,fitness,[2]; [19],0.0239
same,fitness,"[3]; first compound 0.0312 µg/mL, partner 0.15 µg/mL",0.608
same,fitness,"[3]; first compound 0.0312 µg/mL, partner 0.3 µg/mL",0.612
same,fitness,"[3]; first compound 0.0312 µg/mL, partner 0.6 µg/mL",0.475
same,fitness,[3]; [14],0.329
same,fitness,[3]; [15],0.336
same,fitness,[3]; [16],0.243
same,fitness,[3]; [17],0.0373
same,fitness,[3]; [18],0.0413
same,fitness,[3]; [19],0.0299
same,fitness,"[4]; first compound 0.0125 µg/mL, partner 1.2 µg/mL",0.661
same,fitness,"[4]; first compound 0.0125 µg/mL, partner 2.4 µg/mL",0.682
same,fitness,"[4]; first compound 0.0125 µg/mL, partner 4.8 µg/mL",0.688
same,fitness,"[4]; first compound 0.015 µg/mL, partner 1.2 µg/mL, one replicate",0.817
same,fitness,"[4]; first compound 0.015 µg/mL, partner 2.4 µg/mL, one replicate",0.908
same,fitness,"[4]; first compound 0.015 µg/mL, partner 4.8 µg/mL, one replicate",0.909
same,fitness,"[4]; first compound 0.025 µg/mL, partner 1.2 µg/mL",0.413
same,fitness,"[4]; first compound 0.025 µg/mL, partner 2.4 µg/mL",0.439
same,fitness,"[4]; first compound 0.025 µg/mL, partner 4.8 µg/mL",0.445
same,fitness,"[4]; first compound 0.03 µg/mL, partner 1.2 µg/mL, one replicate",0.702
same,fitness,"[4]; first compound 0.03 µg/mL, partner 2.4 µg/mL, one replicate",0.79
same,fitness,"[4]; first compound 0.03 µg/mL, partner 4.8 µg/mL, one replicate",0.71
same,fitness,"[4]; first compound 0.05 µg/mL, partner 1.2 µg/mL",0.175
same,fitness,"[4]; first compound 0.05 µg/mL, partner 2.4 µg/mL",0.207
same,fitness,"[4]; first compound 0.05 µg/mL, partner 4.8 µg/mL",0.196
same,fitness,"[4]; first compound 0.06 µg/mL, partner 1.2 µg/mL, one replicate",0.595
same,fitness,"[4]; first compound 0.06 µg/mL, partner 2.4 µg/mL, one replicate",0.666
same,fitness,"[4]; first compound 0.06 µg/mL, partner 4.8 µg/mL, one replicate",0.554
same,Bliss interaction score,[5],0.0373
same,Bliss interaction score,[6],-0.0342
same,Bliss interaction score,[7],0.0448
same,Bliss interaction score,[8],-0.0563
